Laboratory results taken from the NIST ThermoML archive (doi:10.1016/j.jct.2015.10.011).
Numbers after ± are expanded uncertainties.

Details: 298.15 K; 101.33 kPa; Liquid; Vibrating tube method

mass density: 655.19 ± 0.83 kg/m3
SMILES: CCCCCC [hexane]
